Laboratory results reported in patent US8354433B2, “Anti-inflammatory agents as virostatic compounds” (4SC AG, priority 2009, dated 2013).
Where two headings read alike, the source gives them in different places.

Legend:
human PBMCs = assay: MTS cytotoxicity in human PBMCs; settings: seven days
HIV-191US005 = assay: Anti-HIV efficacy in fresh human PBMCs (RT activity and p24 ELISA); format: cell-based, HIV-1; settings: Human immunodeficiency virus 1, PBMC, 168 h; for EC50: read-out: EC50/nM; for EC90: read-out: EC90/nM
[1] = target: dihydroorotate dehydrogenase (DHODH) (Homo sapiens, UniProt Q02127); assay: DHODH inhibition, in vitro assay; format: biochemical
Influenza Virus (H7N7) = assay: microbe, parasite or virus in culture; format: cell-based, avian influenza virus (Fowl Plaque Virus; settings: unidentified influenza virus, H7N7, A549, 16 h; for inhibition at 30 µM: read-out: Antiviral Activity % Inhibition
[2] = tested on: HCV subgenomic replicon of genotype 1b; assay: microbe, parasite or virus in culture; format: cell-based; settings: Hepatitis C virus, 24 h, read-out: Antiviral Activity EC50/nM
[3] = tested on: ET cell line (luc-ubi-neo/ET), Huh7; assay: CytoTox-1 cytotoxicity in ET cells; settings: 24 h, cell unit μM
WNV Strain NY-99 = assay: microbe, parasite or virus in culture; format: cell-based; settings: West Nile virus, Vero, read-out: Antiviral Activity EC50
RSV Strain Long = assay: microbe, parasite or virus in culture; format: cell-based; settings: human respiratory syncytial virus, Vero, read-out: Antiviral Activity EC50
HBV = assay: Anti-HBV evaluation with HepG2 2.2.15 cells (extracellular HBV DNA, qPCR); format: cell-based; settings: Hepatitis B virus, 144 h; HepG2 2.2.15 cells, HBV DNA, six days; read-out: Antiviral Activity EC50
Procedure: Compounds were solubilized in DMSO in a concentration of 40 mM. (−)-2′-Desoxy-3′-thiacytidin (3TC) was used as the positive antiviral controls. The high-test concentrations were 10 μM for 4SC compounds and 1 μM for 3TC.
Briefly, HepG2-2.2.15 cells were plated in 96-well microtiter plates. Only the interior wells were utilized to reduce “edge effects” observed during cell culture; the exterior wells were filled with complete medium to help minimize sample evaporation. After 16-24 hours the confluent monolayer of HepG2-2.2.15 cells was washed and the medium was replaced with complete medium containing various concentrations of a test compound in triplicate. 3TC was used as the positive control, while media alone was added to cells as a negative control. Three days later the culture medium was replaced with fresh medium containing the appropriately diluted drug. Six days following the initial administration of the test compound, the cell culture supernatant was collected, treated with pronase and then used in a quantitative qPCR TaqMan assay. Antiviral activity was calculated from the reduction in HBV DNA levels (IC50). Cell Titer 96 ®AQueous One Solution Cell Proliferation kit (Promega, Madison, Wis.) was used to measure cell viability which is used to calculate toxicity (TC50). The therapeutic index (TI) was calculated as TC50/IC50

[4] = Cell viability in HepG2-2.2.15 cells (Cell Titer 96); format: cell-based; settings: human, six days, read-out: TC50
Procedure: Anti-HBV assay was performed as described in Korba, B F and Milman, G., 1991 (A cell culture assay for compound which inhibits hepatitis B virus replication. Antiviral Res. 15: 217-228) and in Korba, B F and Gerin, J L., 1992 (Use of a standardized cell culture assay to assess activities of nucleoside analogs again hepatitis B virus replication. Antiviral Res. 19: 55-70) with modifications to measure extracellular HBV DNA copy with real-time PCR (qPCR/TaqMan). Briefly, HepG2-2.2.15 cells were plated in 96-well microtiter plates. Only the interior wells were utilized to reduce “edge effects” observed during cell culture; the exterior wells were filled with complete medium to help minimize sample evaporation. After 16-24 hours the confluent monolayer of HepG2-2.2.15 cells was washed and the medium was replaced with complete medium containing various concentrations of a test compound in triplicate. 3TC was used as the positive control, while media alone was added to cells as a negative control. Three days later the culture medium was replaced with fresh medium containing the appropriately diluted drug. Six days following the initial administration of the test compound, the cell culture supernatant was collected, treated with pronase and then used in a quantitative qPCR TaqMan assay. Antiviral activity was calculated from the reduction in HBV DNA levels (IC50). Cell Titer 96 ®AQueous One Solution Cell Proliferation kit (Promega, Madison, Wis.) was used to measure cell viability which is used to calculate toxicity (TC50). The therapeutic index (TI) was calculated as TC50/IC50

DENV Type 2 (New Guinea) = assay: microbe, parasite or virus in culture; format: cell-based; settings: Dengue virus, Vero C1008, read-out: Antiviral Activity EC50
YFV Strain 17D = assay: microbe, parasite or virus in culture; format: cell-based; settings: Yellow fever virus, Vero, read-out: Antiviral Activity EC50
[5] = Table 8, read-out: DHODH IC50/nM
[6] = Table 2, read-out: DHODH IC50/nM

dihydroorotate dehydrogenase (DHODH), sequence (Q02127 whole entry): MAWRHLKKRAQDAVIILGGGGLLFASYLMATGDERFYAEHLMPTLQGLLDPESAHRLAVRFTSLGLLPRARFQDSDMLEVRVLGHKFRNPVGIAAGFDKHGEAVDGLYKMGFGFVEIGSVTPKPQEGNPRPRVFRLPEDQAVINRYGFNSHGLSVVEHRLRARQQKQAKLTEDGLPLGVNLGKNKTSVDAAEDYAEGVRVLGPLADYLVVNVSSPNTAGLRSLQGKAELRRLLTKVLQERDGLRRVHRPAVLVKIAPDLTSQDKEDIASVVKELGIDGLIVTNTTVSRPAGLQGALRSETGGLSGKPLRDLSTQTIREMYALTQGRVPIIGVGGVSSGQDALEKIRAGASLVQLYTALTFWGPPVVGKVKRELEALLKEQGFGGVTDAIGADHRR

Row | Structure (SMILES) | TC50/nM (human PBMCs) | EC50 (HIV-191US005; Endpoint RT, seven days) | EC90 (HIV-191US005; Endpoint RT, seven days) | EC50 (HIV-191US005; Endpoint p24, seven days) | EC90 (HIV-191US005; Endpoint p24, seven days) | IC50 ([1]; DHODH IC50/nM, Table 1) | IC50 [1, 5] | inhibition at 30 µM (Influenza Virus (H7N7)) | further results
1 | COc1cccc(-c2c(F)c(F)c(NC(=O)c3occc3C(=O)O)c(F)c2F)c1 [Compound 8, 2-(2,3,5,6-tetrafluoro-3′-methoxybiphenyl-4-ylcarbamoyl)furan-3-carboxylic acid] | >100000 nM | 760 nM | 2700 nM | 840 nM | 2970 nM | < 20 nM | < 20 nM | > 50% | 
2 | CCOc1cccc(-c2cc(F)c(NC(=O)c3cscc3C(=O)O)c(F)c2)c1 [Compound 9, 4-(3′-ethoxy-3,5-difluorobiphenyl-4-ylcarbamoyl)thiophene-3-carboxylic acid] |  |  |  |  |  |  | < 20 nM | > 80% | 
3 | O=C(O)C1=C(C(=O)Nc2ccc(OCc3c(F)cccc3Cl)c(F)c2)CCC1 [Compound 21, 2-[4-(2-Chloro-6-fluoro-benzyloxy)-3-fluoro-phenylcarbamoyl]-cyclopent-1-enecarboxylic acid] |  |  |  |  |  |  |  |  | IC50 [1, 6]: 20 to 200 nM; EC50 [2]: 1740 nM; TC50 [3]: >30 µM
4 | O=C(O)C1=C(C(=O)Nc2c(F)cc(-c3cccc(OC(F)(F)F)c3)cc2F)CCC1 [Compound 12, 2-(3,5-difluoro-3′-(trifluoromethoxy)biphenyl-4-ylcarbamoyl)cyclopent-1-enecarboxylic acid] |  |  |  |  |  |  | 20 to 200 nM | > 80% | 
5 | O=C(O)C1=C(C(=O)Nc2c(F)c(F)c(-c3cccc(OC(F)(F)F)c3)c(F)c2F)C(O)CC1 (centres unmarked) [Compound 13, 3-hydroxy-2-(2,3,5,6-tetrafluoro-3′-(trifluoromethoxy)biphenyl-4-ylcarbamoyl)cyclopent-1-enecarboxylic acid] |  |  |  |  |  |  | < 20 nM | > 50% | 
6 | O=C(O)C1=C(C(=O)Nc2c(F)c(F)c(-c3cccc(OC(F)(F)F)c3)c(F)c2F)CSC1 [Compound 25, 4-(2,3,5,6-Tetrafluoro-3′-trifluoromethoxy-biphenyl-4-ylcarbamoyl)-2,5-dihydro-thiophene-3-carboxylic acid] | >100000 nM | 1560 nM | 3020 nM | 1180 nM | 3160 nM | < 20 nM |  |  | 
7 | CN(C)c1ccc(-c2ccc(NC(=O)C3=C(C(=O)O)CCC3)cc2Cl)cc1 [Compound 23, 2-(2-Chloro-4′-dimethylamino-biphenyl-4-ylcarbamoyl)-cyclopent-1-enecarboxylic acid] | >100000 nM | 1070 nM | 3480 nM | 1000 nM | 3720 nM | 20 to 200 nM |  |  | 
8 | O=C(O)C1=C(C(=O)Nc2cc(Cl)c(OCc3c(F)cccc3Cl)c(Cl)c2)CCC1 [Compound 22, 2-[3,5-Dichloro-4-(2-chloro-6-fluoro-benzyloxy)-phenylcarbamoyl]-cyclopent-1-enecarboxylic acid] |  |  |  |  |  |  |  |  | IC50 [1, 6]: 20 to 200 nM; EC50 [2]: 1760 nM; TC50 [3]: >30 µM
9 | COc1cccc(-c2c(F)c(F)c(NC(=O)C3=C(C(=O)O)CCC3)c(F)c2F)c1 [Compound 10, 2-(2,3,5,6-tetrafluoro-3′-methoxybiphenyl-4-ylcarbamoyl)cyclopent-1-enecarboxylic acid] |  |  |  |  |  |  |  | > 80% | 
10 | COc1ccc(-c2ccc(NC(=O)C3=C(C(=O)O)CCC3)cc2Cl)cc1 [Compound 14, 2-(2-chloro-4′-methoxybiphenyl-4-ylcarbamoyl)cyclopent-1-enecarboxylic acid] | >100000 nM | 5240 nM | 12200 nM | 5180 nM | 16600 nM | 20 to 200 nM | 20 to 200 nM | > 50% | 
11 | O=C(O)C1=C(C(=O)Nc2ccc(OCc3c(F)cccc3Cl)c(Cl)c2)CCC1 [Compound 3, 2-[3-Chloro-4-(2-chloro-6-fluoro-benzyloxy)-phenylcarbamoyl]-cyclopent-1-enecarboxylic acid] | 44800 nM | 190 nM | 700 nM | 190 nM | 630 nM | < 20 nM |  |  | EC50 (WNV Strain NY-99): > 10000 nM; EC50 (RSV Strain Long): > 10000 nM; EC50 (HBV): > 10000 nM; CC50 at 6 days [4]: > 10000 nM; IC50 ([1]; DHODH IC50/nM, Table 7): < 20 nM; IC50 [1, 6]: < 20 nM; IC50 ([1]; Table 3, read-out: DHODH IC50/nM): < 20 nM; IC50 ([1]; Table 4, read-out: DHODH IC50/nM): < 20 nM; IC50 ([1]; Table 5, read-out: DHODH IC50/nM): < 20 nM; IC50 ([1]; Table 6, read-out: DHODH IC50/nM): < 20 nM; EC50 [2]: 500 nM; EC50 (DENV Type 2 (New Guinea)): 83 nM; EC50 (YFV Strain 17D): 2190 nM
12 | O=C(O)C1=C(C(=O)Nc2c(F)cc(-c3ccccc3Cl)cc2F)CSC1 [Compound 2, 4-(2′-Chloro-3,5-difluoro-biphenyl-4-ylcarbamoyl)-2,5-dihydro-thiophene-3-carboxylic acid] | >100000 nM | 920 nM | 2590 nM | 1380 nM | 2770 nM | < 20 nM |  |  | IC50 [1, 6]: < 20 nM; EC50 [2]: 680 nM; TC50 [3]: >100 µM
13 | O=C(O)c1cscc1C(=O)Nc1c(F)cc(-c2cccc(OC(F)(F)F)c2)cc1F [Compound 15, 4-(3,5-difluoro-3′-(trifluoromethoxy)biphenyl-4-ylcarbamoyl)thiophene-3-carboxylic acid] |  |  |  |  |  |  | < 20 nM | > 80% | 
14 | COc1cccc(-c2ccc(NC(=O)c3ccsc3C(=O)O)c(F)c2)c1 [Compound 24, 3-(3-Fluoro-3′-methoxy-biphenyl-4-ylcarbamoyl)-thiophene-2-carboxylic acid] | 55800 nM | 3970 nM | 9070 nM | 4540 nM | 12300 nM |  |  |  | IC50 [1]: 20 to 200 nM
15 | O=C(Nc1ccc(-c2ccccc2)cc1)Nc1ccccc1C(=O)O [Compound 7, 2-(3-biphenyl-4-ylureido)benzoic acid] | >100000 nM | 50 nM | 210 nM | 60 nM | 230 nM | < 20 nM |  |  | 
16 | COc1ccccc1-c1c(F)c(F)c(NC(=O)C2=C(C(=O)O)CCC2)c(F)c1F [Compound 11, 2-(2,3,5,6-tetrafluoro-2′-methoxybiphenyl-4-ylcarbamoyl)cyclopent-1-enecarboxylic acid] |  |  |  |  |  |  | < 20 nM | > 90% | EC50 (Influenza Virus (H7N7)): ~3000 nM
